In ChEMBL document CHEMBL5528082 (J Med Chem, 2024):
In brackets after ≈: the same amount, converted by molar mass.

What was measured:
Staphylococcus aureus [1] = assay: Antibacterial activity against TMP-resistant Staphylococcus aureus BHKS 227 incubated for 24 hrs by CLSI based broth microdilution assay; type: functional
Dihydrofolate reductase = Dihydrofolate reductase (Staphylococcus aureus, UniProt P0A017); assay: Inhibition of Staphylococcus aureus DHFR expressed in Escherichia coli BL21 (DE3) using DHF as substrate preincubated for 10 mins followed by substrate addition measured for 10 mins in presence of NADPH by spectrophotometry
Sequence of Dihydrofolate reductase (P0A017 whole entry): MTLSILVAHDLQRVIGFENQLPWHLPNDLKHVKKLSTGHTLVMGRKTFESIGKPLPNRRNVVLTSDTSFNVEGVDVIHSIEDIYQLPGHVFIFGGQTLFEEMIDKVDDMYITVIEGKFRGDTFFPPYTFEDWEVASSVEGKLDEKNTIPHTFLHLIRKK

[2] = Cytotoxicity against HEK293 cells assessed as inhibition rate of cell growth at 100 uM incubated for 24 hrs by CCK8 assay relative to control; type: toxicity, cell-based; details: human
Staphylococcus aureus [3] = assay: Antibacterial activity against Staphylococcus aureus USA 300 incubated for 24 hrs by CLSI based broth microdilution assay; type: functional
Staphylococcus aureus [4] = assay: Antibacterial activity against TMP-resistant Staphylococcus aureus BHKS 723 incubated for 24 hrs by CLSI based broth microdilution assay; type: functional
Staphylococcus aureus [5] = assay: Antibacterial activity against TMP-resistant Staphylococcus aureus BHKS 721 incubated for 24 hrs by CLSI based broth microdilution assay; type: functional
Staphylococcus aureus [6] = assay: Antibacterial activity against Staphylococcus aureus ATCC 25923 incubated for 24 hrs by CLSI based broth microdilution assay; type: functional
[7] = Cytotoxicity against human NCM460 cells assessed as inhibition rate of cell growth at 100 uM incubated for 24 hrs by CCK8 assay relative to control; type: toxicity, cell-based
[8] = test system: Dihydrofolate reductase (Staphylococcus aureus); details: dose 100.0 nM
Staphylococcus aureus [9] = assay: Antibacterial activity against TMP-resistant Staphylococcus aureus BHKS 231 incubated for 24 hrs by CLSI based broth microdilution assay; type: functional

| Structure (SMILES) | MIC (Staphylococcus aureus [1]) [µg/mL] | IC50 (Dihydrofolate reductase) [nM] | inhibition at 24 h, 100 µM [2] [%] | MIC (Staphylococcus aureus [3]) [µg/mL] | MIC (Staphylococcus aureus [4]) [µg/mL] | MIC (Staphylococcus aureus [5]) [µg/mL] | MIC (Staphylococcus aureus [6]) [µg/mL] | inhibition at 24 h, 100 µM [7] [%] | inhibition [8] [%] | MIC (Staphylococcus aureus [9]) [µg/mL] |
| --- | --- | --- | --- | --- | --- | --- | --- | --- | --- | --- |
| CCCOc1cc(C(C)C)c(Oc2cnc(N)nc2N)cc1I | 0.5 (≈ 1.17 µM) | 45 | 47.4 | 0.016 (≈ 0.0374 µM) | > 32 | > 32 | 0.016 (≈ 0.0374 µM) | 66.7 | 43.8 | – |
| CCCCOc1cc(C(C)C)c(Oc2cnc(N)nc2N)cc1I | 1 (≈ 2.26 µM) | 36.7 | 42.2 | 0.125 (≈ 0.283 µM) | 8 (≈ 18.1 µM) | 4 (≈ 9.04 µM) | 0.125 (≈ 0.283 µM) | 72.9 | 50.8 | – |
| COc1cc(C(C)C)c(Oc2cnc(N)nc2N)cc1-c1ccc(Cl)c(C(F)(F)F)c1 | 2 (≈ 4.42 µM) | 142 | 41 | 0.5 (≈ 1.1 µM) | 4 (≈ 8.83 µM) | 4 (≈ 8.83 µM) | 0.5 (≈ 1.1 µM) | 37.8 | 67.4 | – |
| COc1cc(C(C)C)c(Oc2cnc(N)nc2N)cc1-c1ccc(C(F)(F)F)cc1 | 2 (≈ 4.78 µM) | 60.2 | 27.4 | 0.5 (≈ 1.19 µM) | 16 (≈ 38.2 µM) | 16 (≈ 38.2 µM) | 0.5 (≈ 1.19 µM) | 65 | 68.1 | – |
| CCCCCOc1cc(C(C)C)c(Oc2cnc(N)nc2N)cc1I | 2 (≈ 4.38 µM) | 8.36 | 64.9 | 0.125 (≈ 0.274 µM) | 4 (≈ 8.77 µM) | 4 (≈ 8.77 µM) | 0.125 (≈ 0.274 µM) | 41.5 | 45.8 | – |
| COc1cc(C(C)C)c(Oc2cnc(N)nc2N)cc1-c1cc(Cl)cc(Cl)c1 | 1 (≈ 2.38 µM) | 15.4 | 39.7 | 0.125 (≈ 0.298 µM) | 4 (≈ 9.54 µM) | 4 (≈ 9.54 µM) | 0.125 (≈ 0.298 µM) | 66.2 | 78.6 | – |
| COc1cc(C(C)C)c(Oc2cnc(N)nc2N)cc1-c1ccc(C)cc1 | 2 (≈ 5.49 µM) | 38.7 | 2.04 | 0.5 (≈ 1.37 µM) | 16 (≈ 43.9 µM) | 16 (≈ 43.9 µM) | 0.5 (≈ 1.37 µM) | 55.5 | 9.88 | – |
| COc1cc(C(C)C)c(Oc2cnc(N)nc2N)cc1-c1cccc(C(F)(F)F)c1 | 4 (≈ 9.56 µM) | 239 | 51.5 | 1 (≈ 2.39 µM) | 16 (≈ 38.2 µM) | 16 (≈ 38.2 µM) | 1 (≈ 2.39 µM) | 74.6 | 82.9 | – |
| COc1ccc(Oc2cnc(N)nc2N)cc1-c1ccc(C(F)(F)F)cc1 | 4 (≈ 10.6 µM) | 8.29 | 42.3 | 0.016 (≈ 0.0425 µM) | 4 (≈ 10.6 µM) | 4 (≈ 10.6 µM) | 0.031 (≈ 0.0824 µM) | 68.3 | > 100 | – |
| CC(C)c1cc(OCC2CCC2)c(I)cc1Oc1cnc(N)nc1N | 1 (≈ 2.2 µM) | 7.69 | 57.9 | 0.125 (≈ 0.275 µM) | 4 (≈ 8.8 µM) | 4 (≈ 8.8 µM) | 0.125 (≈ 0.275 µM) | 13.2 | 61.3 | – |
| Cc1cc(NS(=O)(=O)c2ccc(N)cc2)no1 [SULFAMETHOXAZOLE] | 4 (≈ 15.8 µM) | – | – | 2 (≈ 7.9 µM) | 4 (≈ 15.8 µM) | 0.5 (≈ 1.97 µM) | 2 (≈ 7.9 µM) | – | – | 256 (≈ 1010 µM) |
| COc1cc(C(C)C)c(Oc2cnc(N)nc2N)cc1-c1ccc(Cl)cc1 | 1 (≈ 2.6 µM) | 66.6 | 16.4 | 0.25 (≈ 0.65 µM) | 16 (≈ 41.6 µM) | 16 (≈ 41.6 µM) | 0.25 (≈ 0.65 µM) | 69.1 | 94.3 | – |
| COc1cc(C(C)C)c(Oc2cnc(N)nc2N)cc1-c1ccc(C(C)(C)C)cc1 | 4 (≈ 9.84 µM) | 37.9 | 20.7 | 0.5 (≈ 1.23 µM) | 4 (≈ 9.84 µM) | 4 (≈ 9.84 µM) | 0.5 (≈ 1.23 µM) | 65.6 | 54.3 | – |
